The values below come from patent publication US5741669A, “Insecticidally effective peptides” (FMC Corporation, priority 1995, dated 1998).

For data set [1], the system named is fall armyworm, Spodoptera frugiperda (FAW). Nature of the data set: Two-dose injection assay of toxins in FAW larvae. Type of data set: in vivo. An excerpt: (§1) The insects tested were last instar, laboratory reared larvae of the tobacco budworm, Heliothis virescens (TBW); the beet armyworm, Spodoptera exigua (BAW); the cabbage looper,Trichoplusia ni (CL); the corn earworm, Heliothis (Helicoverpa) zea (CEW); the fall armyworm, Spodoptera frugiperda (FAW); the soybean looper, Pseudoplusia includens (SBL); the European corn borer, Ostrinia nubilalis (ECB); and the diamondback moth, Plutella xylostella (DBM). Adult house flies, Musca domestica (HF) and adult Southern corn rootworm beetles, Diabrotica undecimpunctata (SRC) were also tested. The first six species (TBW, BAW, CL, CEW, FAW, and SBL) are in the family Noctuidae of the order Lepidoptera. O. nubilalis and P. xylostella are lepidopterans in the families Pyralidae and Plutellidae, respectively. […] Whole venom doses were calculated in terms of WVE. […] Doses of components from early fractionations were also calculated in terms of WVE; doses of purified toxins were calculated from ultraviolet absorbances at 280 nm. […]
(§2) Full dose-response assays were carried out in TBW (n=6), BAW (n=6), CL (n=6) and SCR (n=5). […] LD50 values were determined by log-probit analysis basic program for microcomputer. […] Because probit analysis requires two responses that are neither zero nor 100 percent, […] values in several cases had to be estimated rather than calculated directly. […]

Data set [2] deals with soybean looper, Pseudoplusia includens (SBL). Put plainly: Two-dose injection assay of toxins in SBL larvae. It is filed as in vivo.
Source text: as §1, §2

A further data set deals with male Swiss-Webster mice. Nature of the data set: Mammalian toxicity test by injection in mice. Type of data set: in vivo. The settings on record: 30 μg, male Swiss-Webster mice (~30 gm). On the procedure:
(§3) Injection of 30 μg of NPS-326 into the cerebral ventricles (n=3) or peritoneum (n=2) of male Swiss-Webster mice (~30 gm) had no effect. The effects of NPS-331 in mammalian systems were further tested by in vitro rat brain slice electrophysiology. […] The assay is capable of detecting a variety of effects on various mammalian ion channels and neurotransmitter receptors (Dunwiddie, in Electrophysiological Techniques in Pharmacology, Alan R. Liss, Inc., New York (1986), pp. 65-90).

Data set [3] concerns corn earworm, Heliothis (Helicoverpa) zea (CEW). Nature of the data set: Two-dose injection assay of toxins in CEW larvae. Type of data set: in vivo.
Source text: as §1, §2

Data set [4] deals with diamondback moth, Plutella xylostella (DBM). Put plainly: Injection assay of toxin in DBM larvae. Type of data set: in vivo.
Source text: as §1, §2

The test system of data set [5] is cabbage looper, Trichoplusia ni (CL). Nature of the data set: Injection bioassay of whole venom and purified toxins in CL larvae. Type of data set: in vivo. The settings on record: T. ni (CL), log-probit analysis.
Source text: as §1, §2

In data set [6] the test system is tobacco budworm, Heliothis virescens (TBW). Put plainly: Injection bioassay of whole venom and purified toxins in TBW larvae. Type of data set: in vivo. The settings on record: for LD50: H. virescens (TBW), log-probit analysis. An excerpt: The insects tested were last instar, laboratory reared larvae of the tobacco budworm, Heliothis virescens (TBW); the beet armyworm, Spodoptera exigua (BAW); the cabbage looper,Trichoplusia ni (CL); the corn earworm, Heliothis (Helicoverpa) zea (CEW); the fall armyworm, Spodoptera frugiperda (FAW); the soybean looper, Pseudoplusia includens (SBL); the European corn borer, Ostrinia nubilalis (ECB); and the diamondback moth, Plutella xylostella (DBM). Adult house flies, Musca domestica (HF) and adult Southern corn rootworm beetles, Diabrotica undecimpunctata (SRC) were also tested. The first six species (TBW, BAW, CL, CEW, FAW, and SBL) are in the family Noctuidae of the order Lepidoptera. O. nubilalis and P. xylostella are lepidopterans in the families Pyralidae and Plutellidae, respectively. M. domestica and D. undecimpunctata are in the orders Diptera and Coleoptera, respectively. All species tested are important pests in crop production except M. domestica which is a nuisance pest in agricultural and urban settings. All samples, whether whole venom or venom fractions, were prepared in filter-sterilized physiological saline, pH 6.5. Samples were administered by injection into the hemocoel at or near the lateral midline of the fourth abdominal segment; the needle was inserted at a shallow angle to avoid injury to internal organs. Whole venom doses were calculated in terms of WVE. One WVE is the amount of any material which is normally present in one microliter of whole milked venom. Doses of components from early fractionations were also calculated in terms of WVE; doses of purified toxins were calculated from ultraviolet absorbances at 280 nm. Scopes, Anal. Biochem., 59:277 (1974). Control insects were given an equivalent volume of buffered saline solution.
Full dose-response assays were carried out in TBW (n=6), BAW (n=6), CL (n=6) and SCR (n=5). Other species were challenged with one or both toxins in a two-dose assay for purposes of estimating the toxins' activities in a variety of insects. LD50 values were determined by log-probit analysis basic program for microcomputer. Raymond, Set. Ent. med et Parasitol., 22:117 (1985). The insecticidal Tegenaria toxins generally have quite steep dose-response curves; frequently there is less than a 10-fold difference between a 100% lethal dose and a dose causing no mortality. Because probit analysis requires two responses that are neither zero nor 100 percent, […] values in several cases had to be estimated rather than calculated directly. In every case, however, there was an obvious and statistically significant dose response.

Data set [7] deals with Southern corn rootworm beetles, Diabrotica undecimpunctata (SCR). Nature of the data set: Injection bioassay of toxins in adult Southern corn rootworm beetles. Type of data set: in vivo. The settings on record: D. undecimpunctata (SCR), NPS-326 value estimated (highest dose 100% mortality, rest none).
Source text: as §1, §2

The subject of data set [8] is European corn borer, Ostrinia nubilalis (ECB). Put plainly: Two-dose injection assay of toxins in ECB larvae. It is filed as in vivo.
Source text: as §1, §2

Data set [9] relates to beet armyworm, Spodoptera exigua (BAW). Nature of the data set: Injection bioassay of whole venom and purified toxins in BAW larvae. It is filed as in vivo. The settings on record: S. exigua (BAW), estimate based on 50% mortality at this dose, all other responses 0% or 100%.
Source text: as §1, §2

Data set [10] has as its system house flies, Musca domestica (HF). Nature of the data set: Injection bioassay of toxins in adult house flies. It is filed as in vivo. The conditions noted are these: M. domestica (HF), estimate from two-dose assay (100% and 30% mortality; control 10%).
Source text: as §1, §2

In data set [11] the test system is rat hippocampal preparation, the Schaffer collateral-CA 1 pyramidal cell synapse. Put plainly: In vitro rat brain slice electrophysiology. Type of data set: cell-based. The settings on record: applied at 1 μm. On the procedure:
as §3

Bounds are passed on as bounds.

For “NPS-326 (EPDEICRARMTHKEFNYKSNVCNGCGDQVAACEAECFRNDVYTACHEAQK)”, the “estimated LD50” value in data set [1] is 5.3 nmol/gm; in [2], 1.55 nmol/gm; in data set [3] it was 0.8 nmol/gm; in data set [4] (DBM larvae) it was under 1.1 nmol/gm; in [8] it was 1.1 nmol/gm. Also, the “effect of injection into the peritoneum” value with male Swiss-Webster mice (n=2) is “no effect”. Moreover, the “effect of injection into the cerebral ventricles” value with male Swiss-Webster mice (n=3) is “no effect”. In data set [4] (1.1 nmol/gm, within 24 hours), the “treated larvae developing tremors, spasms and convulsions” value is 90%. Further, the LD50 was 0.78 nmol/gm in data set [5], 0.89 nmol/gm in [6], about 2.0 nmol/gm in [7] and about 0.88 nmol/gm in [9]. The “approximate LD50” value in data set [6] (TBW, venom-derived toxin) was about 5.7 µg/g.
Take “NPS-331 (EPDEICRARMTNKEFTYKSNVCNNCGDQVAACEAECFRNDVYTACHEAQK)”: the “estimated LD50” value in data set [1] is recorded as 1.84 nmol/gm; in data set [2], 1.05 nmol/gm; in data set [3], 1 nmol/gm; in [8], 0.64 nmol/gm. The LD50 in data set [10] is about 0.7 nmol/gm; in data set [5], 0.22 nmol/gm; in data set [6] it was 2.6 nmol/gm; in [7], 0.57 nmol/gm; in data set [9], about 0.29 nmol/gm. Moreover, in [11], the “effect on evoked synaptic responses” value was “without effect”.

B1: NPS-373 (protein)
chain: MKLQLMICLVLLPCFFCEPDEICRARMTNKEFTYKSNVCNGCGDQVAACEAECFRNDVYTACHEAQKG
Take B1: in data set [6] (7.7 μg/g, TBW, n=6), the treated larvae paralyzed stood at 50%.
